Legend:
[1] = system: 4EBP1 (Thr37/46) phosphorylation (mTORC1) in MDA-MB-468 cells; assay: Cell based AlphaLISA assay, mTOR kinase cellular assay: inhibition of p-4E-BP1 (T37/46) in MDA-MB-468 cells; settings: Homo sapiens, read-out: pIC50 for Inhibition of mTORC1 and mTORC2 Substarte Phosphorylation p-4E-BP1-(T37/46) (converted)
Protocol: (§1) Cell Based AlphaLISA Assays for Determining IC50 For Inhibition of P-Akt (S473), P-4E-BP1 (T37/46), and P-P70S6K (T389) in MDA-MB-468 Cells
(§2) mTOR Kinase Cellular Assay
(§3) To measure functional activity of mTORC1 and mTORC2 in cells the phosphorylation of 4EBP1 (Thr37/46) and P70S6K (Thr389), and AKT1/2/3 (Ser473) was monitored using AlphaLisa SureFire Ultra Kits (Perkin Elmer). MDA-MB-468 cells (ATCC® HTB-132) were cultured in 96-well tissue culture plates and treated with compounds in the disclosure at concentrations varying from 0.017-1,000 nM for two to four hours at 37° C. Incubations were terminated by removal of the assay buffer and addition of lysis buffer provided with the assay kit. Samples were processed according to the manufacturer's instructions. The Alpha signal from the respective phosphoproteins was measured in duplicate using a microplate reader (Envision, Perkin-Elmer or Spectramax M5, Molecular Devices). Inhibitor concentration response curves were analyzed using normalized IC50 regression curve fitting with control based normalization.

[2] = system: AKT1/2/3 (Ser473) phosphorylation (mTORC2) in MDA-MB-468 cells; assay: Cell based AlphaLISA assay, mTOR kinase cellular assay: inhibition of p-Akt (S473) in MDA-MB-468 cells; settings: Homo sapiens, read-out: pIC50 for Inhibition of mTORC1 and mTORC2 Substarte Phosphorylation p-AKT1/2/3-(S473) (converted)
In short: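 MDA-MB-468 cells treated with compound at 0.017-1,000 nM for two to four hours at 37° C, then lysed. Phospho-AKT1/2/3 S473, 4EBP1 T37/46 and P70S6K T389 quantified by AlphaLISA SureFire Ultra in duplicate; IC50 from normalized regression with control-based normalization.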

[3] = system: P70S6K (Thr389) phosphorylation (mTORC1) in MDA-MB-468 cells; assay: Cell based AlphaLISA assay, mTOR kinase cellular assay: inhibition of p-P70S6K (T389) in MDA-MB-468 cells; settings: Homo sapiens, read-out: pIC50 for Inhibition of mTORC1 and mTORC2 Substarte Phosphorylation p-P70S6K-(T389) (converted)
Protocol: as §1, §2, §3

Row | Compound | IC50 [1] | IC50 [2] | IC50 [3]
1 | CO[C@H]1C[C@@H]2CC[C@@H](C)[C@@](O)(O2)C(=O)C(=O)N2CCCC[C@H]2C(=O)O[C@H]([C@H](C)C[C@@H]2CC[C@@H](OC(=O)NCCOCCOCCOCCOCCOCCOCCOCCOCCC(=O)N3CCc4cc(Cn5nc(-c6ccc7oc(N)nc7c6)c6c(N)ncnc65)ccc4C3)[C@H](OC)C2)CC(=O)[C@H](C)/C=C(\C)[C@@H](O)[C@@H](OC)C(=O)[C@H](C)C[C@H](C)/C=C/C=C/C=C/1C [Example 2] | ≤ 3.16 nM | 3.16 to 31.6 nM | ≤ 1 nM
2 | CO[C@H]1C[C@@H]2CC[C@@H](C)[C@@](O)(O2)C(=O)C(=O)N2CCCC[C@H]2C(=O)O[C@H]([C@H](C)C[C@@H]2CC[C@@H](OC(=O)NCCOCCOCCOCCOCCC(=O)NCCOCCOCCOCCOCCC(=O)N3CCc4cc(Cn5nc(-c6ccc7oc(N)nc7c6)c6c(N)ncnc65)ccc4C3)[C@H](OC)C2)CC(=O)[C@H](C)/C=C(\C)[C@@H](O)[C@@H](OC)C(=O)[C@H](C)C[C@H](C)/C=C/C=C/C=C/1C [Example 15] | ≤ 3.16 nM | 3.16 to 31.6 nM | ≤ 1 nM
3 | CO[C@H]1C[C@@H]2CC[C@@H](C)[C@@](O)(O2)C(=O)C(=O)N2CCCC[C@H]2C(=O)O[C@H]([C@H](C)C[C@@H]2CC[C@@H](OC(=O)NCCOCCOCCOCCOCCC(=O)NCCOCCOCCOCCOCCC(=O)N3CCc4cc(Cn5nc(-c6ccc7oc(N)nc7c6)c6c(N)ncnc65)ccc4C3)[C@H](OC)C2)C[C@@H](O)[C@H](C)/C=C(\C)[C@@H](O)[C@@H](OC)C(=O)[C@H](C)C[C@H](C)/C=C/C=C/C=C/1C [Example 16] | ≤ 3.16 nM | ≤ 3.16 nM | ≤ 1 nM
4 | CO[C@H]1C[C@@H]2CC[C@@H](C)[C@@](O)(O2)C(=O)C(=O)N2CCCC[C@H]2C(=O)O[C@H]([C@H](C)C[C@@H]2CC[C@@H](OC(=O)NCCOCCOCCOCCOCCC(=O)NCCOCCOCCOCCOCCC(=O)N3CCc4cc(Cn5nc(-c6ccc7oc(N)nc7c6)c6c(N)ncnc65)ccc4C3)[C@H](OC)C2)C[C@@H](OC)[C@H](C)/C=C(\C)[C@@H](O)[C@@H](OC)C(=O)[C@H](C)C[C@H](C)/C=C/C=C/C=C/1C [Example 17] | ≤ 3.16 nM | 3.16 to 31.6 nM | ≤ 1 nM
5 | CO[C@H]1C[C@@H]2CC[C@@H](C)[C@@](O)(O2)C(=O)C(=O)N2CCCC[C@H]2C(=O)O[C@H]([C@H](C)C[C@@H]2CC[C@@H](OC(=O)NCCOCCOCCOCCOCCC(=O)NCCOCCOCCOCCOCCC(=O)NCCCCn3nc(-c4cnc5[nH]ccc5c4)c4c(N)ncnc43)[C@H](OC)C2)CC(=O)[C@H](C)/C=C(\C)[C@@H](O)[C@@H](OC)C(=O)[C@H](C)C[C@H](C)/C=C/C=C/C=C/1C [Example 18] | 3.16 to 31.6 nM | 31.6 to 1000 nM | ≤ 1 nM
6 | CO[C@H]1C[C@@H]2CC[C@@H](C)[C@@](O)(O2)C(=O)C(=O)N2CCCC[C@H]2C(=O)O[C@H]([C@H](C)C[C@@H]2CC[C@@H](OC(=O)NCCOCCOCCOCCOCCOCCOCCOCCOCCC(=O)N3CCC(n4nc(-c5ccc6oc(N)nc6c5)c5c(N)ncnc54)CC3)[C@H](OC)C2)CC(=O)[C@H](C)/C=C(\C)[C@@H](O)[C@@H](OC)C(=O)[C@H](C)C[C@H](C)/C=C/C=C/C=C/1C [Example 19] | ≤ 3.16 nM | ≤ 3.16 nM | ≤ 1 nM
7 | CO[C@H]1C[C@@H]2CC[C@@H](C)[C@@](O)(O2)C(=O)C(=O)N2CCCC[C@H]2C(=O)O[C@H]([C@H](C)C[C@@H]2CC[C@@H](OC(=O)NCCOCCOCCOCCOCCOCCOCCOCCOCCOCCOCCC(=O)N3CCC(n4nc(-c5cnc6[nH]ccc6c5)c5c(N)ncnc54)CC3)[C@H](OC)C2)CC(=O)[C@H](C)/C=C(\C)[C@@H](O)[C@@H](OC)C(=O)[C@H](C)C[C@H](C)/C=C/C=C/C=C/1C [Example 20] | ≤ 3.16 nM | ≤ 3.16 nM | ≤ 1 nM
8 | CO[C@H]1C[C@@H]2CC[C@@H](C)[C@@](O)(O2)C(=O)C(=O)N2CCCC[C@H]2C(=O)O[C@H]([C@H](C)C[C@@H]2CC[C@@H](OC(=O)NCCOCCOCCOCCOCCOCCC(=O)NCCOCCOCCOCCOCCOCCC(=O)N3CCc4cc(Cn5nc(-c6cnc7[nH]ccc7c6)c6c(N)ncnc65)ccc4C3)[C@H](OC)C2)CC(=O)[C@H](C)/C=C(\C)[C@@H](O)[C@@H](OC)C(=O)[C@H](C)C[C@H](C)/C=C/C=C/C=C/1C [Example 21] | ≤ 3.16 nM | 31.6 to 1000 nM | ≤ 1 nM
9 | CO[C@H]1C[C@@H]2CC[C@@H](C)[C@@](O)(O2)C(=O)C(=O)N2CCCC[C@H]2C(=O)O[C@H]([C@H](C)C[C@@H]2CC[C@@H](OC(=O)NCc3cnc(N4CCN(c5ncc(C(=O)NCCOCCOCCOCCOCCC(=O)N6CCc7cc(Cn8nc(-c9ccc%10oc(N)nc%10c9)c9c(N)ncnc98)ccc7C6)cn5)CC4)nc3)[C@H](OC)C2)CC(=O)[C@H](C)/C=C(\C)[C@@H](O)[C@@H](OC)C(=O)[C@H](C)C[C@H](C)/C=C/C=C/C=C/1C [Example 27] | ≤ 3.16 nM | 3.16 to 31.6 nM | ≤ 1 nM
10 | CO[C@H]1C[C@@H]2CC[C@@H](C)[C@@](O)(O2)C(=O)C(=O)N2CCCC[C@H]2C(=O)O[C@H]([C@H](C)C[C@@H]2CC[C@@H](OC(=O)NCc3cnc(N4CCN(c5ncc(C(=O)NCCOCCOCCOCCOCCC(=O)N6CCc7cc(Cn8nc(-c9ccc%10oc(N)nc%10c9)c9c(N)ncnc98)ccc7C6)cn5)CC4)nc3)[C@H](OC)C2)C[C@@H](O)[C@H](C)/C=C(\C)[C@@H](O)[C@@H](OC)C(=O)[C@H](C)C[C@H](C)/C=C/C=C/C=C/1C [Example 28] | ≤ 3.16 nM | > 1000 nM | ≤ 1 nM
11 | CO[C@H]1C[C@@H]2CC[C@@H](C)[C@@](O)(O2)C(=O)C(=O)N2CCCC[C@H]2C(=O)O[C@H]([C@H](C)C[C@@H]2CC[C@@H](OC(=O)NCc3cnc(N4CCN(c5ncc(C(=O)NCCOCCOCCOCCOCCC(=O)N6CCc7cc(Cn8nc(-c9ccc%10oc(N)nc%10c9)c9c(N)ncnc98)ccc7C6)cn5)CC4)nc3)[C@H](OC)C2)C[C@@H](OC)[C@H](C)/C=C(\C)[C@@H](O)[C@@H](OC)C(=O)[C@H](C)C[C@H](C)/C=C/C=C/C=C/1C [Example 29] | ≤ 3.16 nM | > 1000 nM | ≤ 1 nM
12 | CO[C@H]1C[C@@H]2CC[C@@H](C)[C@@](O)(O2)C(=O)C(=O)N2CCCC[C@H]2C(=O)O[C@H]([C@H](C)C[C@@H]2CC[C@@H](OC(=O)NCc3cnc(N4CCN(c5ncc(C(=O)NCCOCCOCCC(=O)N6CCc7cc(Cn8nc(-c9ccc%10oc(N)nc%10c9)c9c(N)ncnc98)ccc7C6)cn5)CC4)nc3)[C@H](OC)C2)CC(=O)[C@H](C)/C=C(\C)[C@@H](O)[C@@H](OC)C(=O)[C@H](C)C[C@H](C)/C=C/C=C/C=C/1C [Example 31] | ≤ 3.16 nM | 3.16 to 31.6 nM | ≤ 1 nM
13 | CO[C@H]1C[C@@H]2CC[C@@H](C)[C@@](O)(O2)C(=O)C(=O)N2CCCC[C@H]2C(=O)O[C@H]([C@H](C)C[C@@H]2CC[C@@H](OC(=O)NCc3cnc(N4CCN(C(=O)CCOCCN5CCN(c6ncc(C(=O)N7CCc8cc(Cn9nc(-c%10cnc%11[nH]ccc%11c%10)c%10c(N)ncnc%109)ccc8C7)cn6)CC5)CC4)nc3)[C@H](OC)C2)CC(=O)[C@H](C)/C=C(\C)[C@@H](O)[C@@H](OC)C(=O)[C@H](C)C[C@H](C)/C=C/C=C/C=C/1C [Example 52] | ≤ 3.16 nM |  | ≤ 1 nM

— patent US20230233569A1 (Revolution Medicines, Inc., priority 2020, published 2023)
